Consider 31 compounds from patent US20230089073A1 (Carmot Therapeutics, Inc., priority 2021, published 2023).

pEC50: −log10 of the molar value.

The experiment has as its target T1, human GLP-1 receptor (Homo sapiens, UniProt P43220).
T1 construct: expressed in transfected cells
Briefly: GLP-1R cAMP Assay. Particulars: cAMP accumulation in CHO cells stably overexpressing the human GLP-1 receptor; 30 min treatment; HitHunter cAMP kit; read-out: EC50. The format is cell-based. The gist of the method: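 Luminescent enzyme-complementation detection of cAMP, read after cell lysis and overnight incubation, with dose-response curve fitting. Stimulation lasted 30 min, using 20-point triplicate dosing on CHO cells (10,000 per well) stably overexpressing human GLP-1R.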

T1 sequence (P43220 24-463): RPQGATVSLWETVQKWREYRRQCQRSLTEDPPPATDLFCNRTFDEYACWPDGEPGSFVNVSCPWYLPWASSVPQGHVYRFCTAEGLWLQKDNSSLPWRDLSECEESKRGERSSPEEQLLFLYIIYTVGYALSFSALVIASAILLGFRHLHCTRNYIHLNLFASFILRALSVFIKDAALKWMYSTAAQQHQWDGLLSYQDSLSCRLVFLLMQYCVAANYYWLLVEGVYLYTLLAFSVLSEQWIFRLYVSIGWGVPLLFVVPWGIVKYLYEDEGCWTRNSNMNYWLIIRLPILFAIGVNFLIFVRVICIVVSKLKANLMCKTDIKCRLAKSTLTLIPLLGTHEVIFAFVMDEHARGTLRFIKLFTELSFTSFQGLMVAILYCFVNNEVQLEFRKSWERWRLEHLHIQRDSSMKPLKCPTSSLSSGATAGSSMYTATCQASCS

With `N#Cc1ccc(COc2cccc(C3CCN(C(=O)c4ccc(-c5nnn[nH]5)nc4)CC3)n2)c(F)c1` [Example 83, 4-(((6-(1-(6-(1H-Tetrazol-5-yl)nicotinoyl)piperidin-4-yl)pyridin-2-yl)oxy)methyl)-3-fluorobenzonitrile], the pEC50 (usually the negative decadic logarithm of the EC50, by convention in mol/L) is above 7.30.
Consider `O=C(O)c1ccc2nc(CN3CCC(Oc4ccnc(COc5ncc(Cl)cc5F)c4)CC3)n(C[C@@H]3CCO3)c2c1` [Compound 308], for which the pEC50 is above 7.30.
The same measure for `CCn1cncc1Cn1c(CN2CC[C@H](Cc3cnc(COc4ccc(Cl)cc4Cl)o3)C[C@@H]2C)nc2ccc(C(=O)O)cc21` [Compound 279, 2-{[(2S,4S)-4-({2-[(2,4-dichlorophenoxy)methyl]-1,3-oxazol-5-yl}methyl)-2-methylpiperidin-1-yl]methyl}-1-[(1-ethyl-1H-imidazol-5-yl)methyl]-1H-1,3-benzodiazole-6-carboxylic acid]: above 7.30.
The same measure for `Cc1ccc(Oc2cc(C(=O)N3CCN(Cc4nc5ccc(C(=O)O)cc5n4C[C@@H]4CCO4)CC3)ncn2)cc1` [Example 34, (S)-1-(Oxetan-2-ylmethyl)-2-((4-(6-(p-tolyloxy)pyrimidine-4-carbonyl)piperazin-1-yl)methyl)-1H-benzo[d]imidazole-6-carboxylic acid]: above 7.30; for `N#Cc1ccc(OCc2nccc(OC3CCN(Cc4nc5ccc(C(=O)O)nc5n4C[C@@H]4CCO4)CC3)n2)c(F)c1` [Compound 373]: above 7.30.
To `Cc1cc(C2CC2)ccc1N(C)c1cccc(C(=O)N2CCN(Cc3nc4ccc(C(=O)O)cc4n3C[C@@H]3CCO3)CC2)c1` [Example 115, (S)-2-((4-(3-((4-Cyclopropyl-2-methylphenyl)(methyl)amino)benzoyl)piperazin-1-yl)methyl)-1-(oxetan-2-ylmethyl)-1H-benzo[d]imidazole-6-carboxylic acid] belongs above 7.30; to `CCn1cncc1Cn1c(CN2CCC(C(F)(F)c3cccc(COc4ccc(C)cc4Cl)c3)CC2)nc2ccc(C(=O)O)cc21` [Example 132, 2-((4-((3-((2-Chloro-4-methylphenoxy)methyl)phenyl)difluoromethyl)piperidin-1-yl)methyl)-1-((1-ethyl-1H-imidazol-5-yl)methyl)-1H-benzo[d]imidazole-6-carboxylic acid], above 7.30.
For `O=C(O)c1cc(F)c2nc(CN3CCC(Oc4ccnc(COc5ccc(F)cc5Cl)n4)CC3)n(CC3(CF)CC3)c2c1` [Compound 327], the pEC50 was above 7.30.
The same measure for `O=C(O)c1cc(F)c2nc(CN3CCC(Oc4ccnc(COc5ccc(F)cc5F)n4)CC3)n(C[C@@H]3CCO3)c2c1` [Compound 482, 2-{[4-({2-[(2,4-difluorophenoxy)methyl]pyrimidin-4-yl}oxy)piperidin-1-yl]methyl}-4-fluoro-1-{[(2S)-oxetan-2-yl]methyl}-1H-1,3-benzodiazole-6-carboxylic acid]: above 7.30; for `CCn1cncc1Cn1c(CN2CCC(C(F)(F)c3cccc(COc4ccc(Cl)cc4Cl)c3)CC2)nc2ccc(C(=O)O)cc21` [Compound 161, 2-{[4-({3-[(2,4-dichlorophenoxy)methyl]phenyl}difluoromethyl)piperidin-1-yl]methyl}-1-[(1-ethyl-1H-imidazol-5-yl)methyl]-1H-1,3-benzodiazole-6-carboxylic acid]: above 7.30.
To `N#Cc1ccc(OCc2nccc(OC3CCN(Cc4nc5ccc(C(=O)O)cc5n4C[C@@H]4CCO4)CC3)n2)c(Cl)c1` [Compound 369] belongs above 7.30.
To `O=C(O)c1ccc2nc(CN3CCC(Oc4cccc(COc5ccc(C(F)F)cc5F)c4)CC3)n(C[C@@H]3CCO3)c2c1` [Compound 301] belongs above 7.30.
In the case of `CCn1cncc1Cn1c(CN2CCN(C(=O)c3cccc(Cc4ccc(C)cc4Cl)c3)CC2)nc2ccc(C(=O)O)cc21` [Compound 56, 2-[(4-{3-[(2-chloro-4-methylphenyl)methyl]benzoyl}piperazin-1-yl)methyl]-1-[(1-ethyl-1H-imidazol-5-yl)methyl]-1H-1,3-benzodiazole-6-carboxylic acid], the negative-log EC50 (pEC50) was 6.30 to 7.30.
The same measure for `Cc1ccc(OCc2ccc(F)c(CC3CCN(Cc4nc5ccc(C(=O)O)cc5n4C[C@@H]4CCO4)CC3)n2)c(Cl)c1` [Compound 123, 2-{[4-({6-[(2-chloro-4-methylphenoxy)methyl]-3-fluoropyridin-2-yl}methyl)piperidin-1-yl]methyl}-1-{[(2S)-oxetan-2-yl]methyl}-1H-1,3-benzodiazole-6-carboxylic acid]: above 7.30.
To `N#Cc1ccc(OCc2nccc(OC3CCN(Cc4nc5ccc(C(=O)O)cc5n4C[C@@H]4CCO4)CC3)n2)c(F)c1` [Example 262, (S)-2-((4-((2-((4-Cyano-2-fluorophenoxy)methyl)pyrimidin-4-yl)oxy)piperidin-1-yl)methyl)-1-(oxetan-2-ylmethyl)-1H-benzo[d]imidazole-6-carboxylic acid] belongs above 7.30.
The same measure for `O=C(O)c1ccc2nc(CN3CCC(Oc4ccnc(COc5ccc(Cl)cc5)c4)CC3)n(C[C@@H]3CCO3)c2c1` [Compound 352]: above 7.30; for `O=C(O)c1ccc2nc(CN3CCN(Cc4cc5ccc(-c6ccc(Cl)cc6Cl)cc5o4)CC3)n(C[C@@H]3CCO3)c2c1` [Example 27, (S)-2-((4-((6-(2,4-Dichlorophenyl)benzofuran-2-yl)methyl)piperazin-1-yl)methyl)-1-(oxetan-2-ylmethyl)-1H-benzo[d]imidazole-6-carboxylic acid]: below 6.30; for `Cc1cc(C(=O)O)cc2c1nc(CN1CCC(Oc3ccnc(COc4ccc(C#N)cc4F)c3)CC1)n2C[C@@H]1CCO1` [Compound 499, 2-{[4-({2-[(4-cyano-2-fluorophenoxy)methyl]pyridin-4-yl}oxy)piperidin-1-yl]methyl}-4-methyl-1-{[(2S)-oxetan-2-yl]methyl}-1H-1,3-benzodiazole-6-carboxylic acid]: above 7.30.
Consider `O=C(O)c1ccc2nc(CN3CCC(Oc4ccnc(COc5ccc(Cl)cc5F)c4)CC3)n(CC3(O)CC3)c2c1` [Compound 345], for which the pEC50 is above 7.30.
The same measure for `C[C@H]1C[C@@H](Oc2ccnc(COc3ccc(C#N)cc3F)n2)CCN1Cc1nc2ncc(C(=O)O)cc2n1C[C@@H]1CCO1` [Compound 513, 2-{[(2S,4S)-4-({2-[(4-cyano-2-fluorophenoxy)methyl]pyrimidin-4-yl}oxy)-2-methylpiperidin-1-yl]methyl}-1-{[(2S)-oxetan-2-yl]methyl}-1H-imidazo[4,5-b]pyridine-6-carboxylic acid]: above 7.30.
To `CCn1cncc1Cn1c(CN2CCC(Oc3cccc(COc4ccc(Cl)cc4F)n3)CC2)nc2ccc(C(=O)O)cc21` [Compound 247, 2-{[4-({6-[(4-chloro-2-fluorophenoxy)methyl]pyridin-2-yl}oxy)piperidin-1-yl]methyl}-1-[(1-ethyl-1H-imidazol-5-yl)methyl]-1H-1,3-benzodiazole-6-carboxylic acid] belongs above 7.30.
The same measure for `Cc1cccc(Oc2cccc(C(=O)N3CCN(Cc4nc5ccc(C(=O)O)cc5n4C[C@@H]4CCO4)CC3)c2)c1` [Compound 17, 2-({4-[3-(3-methylphenoxy)benzoyl]piperazin-1-yl}methyl)-1-{[(2S)-oxetan-2-yl]methyl}-1H-1,3-benzodiazole-6-carboxylic acid]: below 6.30.
As to `N#Cc1ccc(OCc2cc(OC3CCN(Cc4nc5ccc(C(=O)O)nc5n4C[C@@H]4CCO4)CC3)ccn2)c(F)c1` [Compound 379], the pEC50 was above 7.30.
To `N#Cc1cc(Cl)ccc1OCc1cccc(OC2CCN(Cc3nc4ccc(C(=O)O)cc4n3Cc3ncco3)CC2)n1` [Compound 251, 2-{[4-({6-[(4-chloro-cyanophenoxy)methyl]pyridin-2-yl}oxy)piperidin-1-yl]methyl}-1-[(1,3-oxazol-2-yl)methyl]-1H-1,3-benzodiazole-6-carboxylic acid] belongs below 6.30; to `Cc1ccc(OCc2ccc(C(=O)N3CCN(Cc4nc5ccc(C(=O)O)cc5n4C[C@@H]4CCO4)CC3)o2)cc1` [Compound 42, 2-[(4-{5-[(4-methylphenoxy)methyl]furan-2-carbonyl}piperazin-1-yl)methyl]-1-{[(2S)-oxetan-2-yl]methyl}-1H-1,3-benzodiazole-6-carboxylic acid], below 6.30; to `CCn1cncc1Cn1c(CN2CCC(Cc3cccc(COc4ccc(C5CC5)cc4Cl)n3)CC2)nc2ccc(C(=O)O)cc21` [Compound 153, 2-{[4-({6-[(2-chloro-4-cyclopropylphenoxy)methyl]pyridin-2-yl}methyl)piperidin-1-yl]methyl}-1-[(1-ethyl-1H-imidazol-5-yl)methyl]-1H-1,3-benzodiazole-6-carboxylic acid], above 7.30.
On to `O=C(O)c1ccc2nc(CN3CCN(C(=O)c4ccc(COc5cccc(Cl)c5)o4)CC3)n(C[C@@H]3CCO3)c2c1` [Compound 40, 2-[(4-{5-[(3-chlorophenoxy)methyl]furan-2-carbonyl}piperazin-1-yl)methyl]-1-{[(2S)-oxetan-2-yl]methyl}-1H-1,3-benzodiazole-6-carboxylic acid], for which the pEC50 is below 6.30.
To `N#Cc1ccc(OCc2cc(OC3CCN(Cc4nc5c(F)cc(C(=O)O)cc5n4C[C@@H]4CCO4)CC3)ccn2)c(Cl)c1` [Compound 359] belongs above 7.30; to `COCCn1c(CN2CCC(Oc3ccnc(COc4ccc(Cl)cc4F)c3)CC2)nc2c(F)cc(C(=O)O)cc21` [Compound 344], above 7.30; to `O=C(O)c1ccc2nc(CN3CCC(Oc4ccnc(COc5ccc(Cl)cc5Cl)n4)CC3)n(C[C@@H]3CCO3)c2c1` [Example 304, (S)-2-((4-((2-((2,4-Dichlorophenoxy)methyl)pyrimidin-4-yl)oxy)piperidin-1-yl)methyl)-1-(oxetan-2-ylmethyl)-1H-benzo[d]imidazole-6-carboxylic acid], above 7.30.
The same measure for `Cc1ccc(Nc2cccc(C(=O)N3CCN(Cc4nc5ccc(C(=O)O)cc5n4C[C@@H]4CCO4)CC3)c2)c(Cl)c1` [Compound 50, 2-[(4-{3-[(2-chloro-4-methylphenyl)amino]benzoyl}piperazin-1-yl)methyl]-1-{[(2S)-oxetan-2-yl]methyl}-1H-1,3-benzodiazole-6-carboxylic acid]: below 6.30.
